What is called IC50 is the midpoint of a concentration-inhibition curve.

Drawing on US20070049593A1 (priority 2004, published 2007), this text covers IC50 for 19 molecules.

The target in this test is T1, HCV polymerase (Hepatitis C virus genotype 1b, UniProt P26663).
T1 construct: a region encoding NS5B (J Virol 1991 March, 65(3), 1105-13, 544 amino acids after deletion of 47 amino acids on the C-terminal); 6xHis (C); made in house; host or cells: Escherichia coli
Kind of test: biochemical. Also noted: species or system HCV BK strain. In outline: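 His-tagged NS5B (BK strain, 47-aa C-terminal deletion, E. coli-expressed) at 0.5 μg/ml copied 5 μg/ml run-off RNA bearing the HCV 3′ UTR with 2 μM UTP plus [3H]UTP, 50 μM ATP/GTP, in pH 7.5 Tris with 5 mM MgCl2, 25 °C, 90 min. TCA-precipitated RNA was counted and IC50 calculated.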

Counter-ions that a name gives are not always drawn. A value given as a limit tells only on which side of the number the result lay.

T1 sequence (P26663 2420-2963): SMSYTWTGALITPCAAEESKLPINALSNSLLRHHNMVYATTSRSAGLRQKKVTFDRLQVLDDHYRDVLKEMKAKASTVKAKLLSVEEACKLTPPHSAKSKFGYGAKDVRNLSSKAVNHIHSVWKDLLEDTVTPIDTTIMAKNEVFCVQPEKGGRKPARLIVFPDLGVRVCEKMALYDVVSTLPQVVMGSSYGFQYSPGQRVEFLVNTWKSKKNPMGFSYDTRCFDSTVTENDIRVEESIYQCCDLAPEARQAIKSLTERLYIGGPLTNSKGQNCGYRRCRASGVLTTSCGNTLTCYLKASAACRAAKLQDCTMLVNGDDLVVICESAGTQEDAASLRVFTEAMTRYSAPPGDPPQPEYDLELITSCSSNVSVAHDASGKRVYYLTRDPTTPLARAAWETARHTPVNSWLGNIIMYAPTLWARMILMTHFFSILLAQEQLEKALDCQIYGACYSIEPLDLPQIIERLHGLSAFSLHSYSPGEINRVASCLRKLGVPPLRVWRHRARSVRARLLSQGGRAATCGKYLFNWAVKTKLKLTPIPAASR

As to `COCC1CCCN(CCN2CCn3c(c(C4CCCCC4)c4ccc(C(=O)O)cc43)-c3ccc(OCC(C)C)cc32)C1` (stereo not shown) [Example 1-377, 13-cyclohexyl-3-isobutoxy-5-[2-(3-methoxymethylpiperidin-1-yl)ethyl]-6,7-dihydro-5H-benzo[5,6][1,4]diazepino[7,1-a]indole-10-carboxylic acid dihydrochloride], the IC50 is < 100 nM.
To `Cc1ccc2c(c1)N(C)CCn1c-2c(C2CCCCC2)c2ccc(S(N)(=O)=O)cc21` [Example 1-517, 13-cyclohexyl-3,5-dimethyl-6,7-dihydro-5H-benzo[5,6][1,4]diazepino[7,1-a]indole-10-sulfonamide] belongs 100 to 1000 nM; to `Cc1nc(COc2ccc3c(c2)N(CCN2CCCCC2)CCn2c-3c(C3CCCCC3)c3ccc(C(=O)O)cc32)cs1` [Example 1-401, 13-cyclohexyl-3-(2-methylthiazol-4-ylmethoxy)-5-[2-(piperidin-1-yl)ethyl]-6,7-dihydro-5H-benzo[5,6][1,4]diazepino[7,1-a]indole-10-carboxylic acid dihydrochloride], < 100 nM.
The result for `O=C(O)c1ccc2c(C3CCCCC3)c3n(c2n1)CCOc1cc(OCc2cc(N4CCCC4=O)ccc2N2CCOCC2)ccc1-3` [Example 7-4, 12-cyclohexyl-3-[2-(morpholin-4-yl)-5-(2-oxopyrrolidin-1-yl)benzyloxy]-6,7-dihydro-5-oxa-7a,8-diazadibenzo[a,e]azulene-9-carboxylic acid dihydrochloride] reads < 100 nM.
The result for `O=C(O)c1ccc2c(C3CCCCC3)c3n(c2c1)CCN(CCCN1CCCCCC1)c1cc(Cl)ccc1-3` [Example 1-245, 5-[3-(azepan-1-yl)propyl]-3-chloro-13-cyclohexyl-6,7-dihydro-5H-benzo[5,6][1,4]diazepino[7,1-a]indole-10-carboxylic acid dihydrochloride] reads < 100 nM; that for `CC(C)C1CCCN(CCN2CCn3c(c(C4CCCCC4)c4ccc(C(=O)O)cc43)-c3ccc(Cl)cc32)C1` (stereo not shown) [Example 1-351, 3-chloro-13-cyclohexyl-5-[2-(3-isopropylpiperidin-1-yl)ethyl]-6,7-dihydro-5H-benzo[5,6][1,4]diazepino[7,1-a]indole-10-carboxylic acid dihydrochloride], < 100 nM.
`COc1ccc2c(c1)OCCn1c-2c(C2CCCCC2)c2ccc(C(=O)NC3(C(=O)Nc4ccc(/C=C/C(=O)O)c(OC)c4)CCC3)cc21` [Example 2-531, (E)-3-[4-({1-[(12-cyclohexyl-3-methoxy-6,7-dihydro-5-oxa-7a-azadibenzo[a,e]azulene-9-carbonyl)amino]cyclobutanecarbonyl}amino)-2-methoxyphenyl]acrylic acid]: the IC50 was < 100 nM.
The result for `Cc1ccc2c(c1)N(CCN1CCCCC1)CCn1c-2c(C2CCCCC2)c2ccc(C(=O)O)c(Cl)c21` [Example 1-451, 9-chloro-13-cyclohexyl-3-methyl-5-[2-(piperidin-1-yl)ethyl]-6,7-dihydro-5H-benzo[5,6][1,4]diazepino[7,1-a]indole-10-carboxylic acid dihydrochloride] reads < 100 nM.
Regarding `CC(C)(C)OC(=O)N1CCCCC1CCN1CCn2c(c(C3CCCCC3)c3ccc(C(=O)O)cc32)-c2ccccc21` (stereo not shown) [Example 1-161, 5-[2-(1-tert-butoxycarbonylpiperidin-2-yl)ethyl]-13-cyclohexyl-6,7-dihydro-5H-benzo[5,6][1,4]diazepino[7,1-a]indole-10-carboxylic acid monohydrochloride], the IC50 was < 100 nM.
To `COc1ccc2c(c1)OCCn1c-2c(C2CCCCC2)c2ccc(C(=O)N[C@@H](Cc3ccc(O)cc3)C3=NC(C)(C)C(=O)O3)cc21` [Example 2-524, N—[(S)-1-(4,4-dimethyl-5-oxo-4,5-dihydrooxazol-2-yl)-2-(4-hydroxyphenyl)ethyl]-12-cyclohexyl-3-methoxy-6,7-dihydro-5-oxa-7a-azadibenzo[a,e]azulene-9-carboxamide] belongs < 100 nM; to `O=C(O)c1ccc2c(C3CCCCC3)c3n(c2c1)CCN(CCCO)c1ccccc1-3` [Example 1-112, 13-cyclohexyl-5-(3-hydroxypropyl)-6,7-dihydro-5H-benzo[5,6][1,4]diazepino[7,1-a]indole-10-carboxylic acid monohydrochloride], < 100 nM.
The result for `CN(C)CCN1CCn2c(c(C3CCCCC3)c3ccc(C(=O)O)cc32)-c2ccc(OCc3ccccc3)cc21` [Example 1-228, 3-benzyloxy-13-cyclohexyl-5-(2-dimethylaminoethyl)-6,7-dihydro-5H-benzo[5,6][1,4]diazepino[7,1-a]indole-10-carboxylic acid dihydrochloride] reads < 100 nM.
To `CCc1ccc2c(c1)N(CCN1CCCC(C)C1)CCn1c-2c(C2CCCCC2)c2ccc(C(=O)O)cc21` (stereo not shown) [Example 1-339, 13-cyclohexyl-3-ethyl-5-[2-(3-methylpiperidin-1-yl)ethyl]-6,7-dihydro-5H-benzo[5,6][1,4]diazepino[7,1-a]indole-10-carboxylic acid dihydrochloride] belongs < 100 nM; to `CC(C)[C@@H](COc1ccc2c(c1)OCCn1c-2c(C2CCCCC2)c2ccc(C(=O)O)cc21)NS(C)(=O)=O` [Example 2-51, 12-cyclohexyl-3-((S)-2-methanesulfonylamino-3-methylbutoxy)-6,7-dihydro-5-oxa-7a-azadibenzo[a,e]azulene-9-carboxylic acid], < 100 nM.
Turning to `CCOc1ccc2c(c1)N(C)CCn1c-2c(C2CCCCC2)c2ccc(C(=O)NC3(C(=O)Nc4ccc(/C=C/C(=O)O)c(C)c4)CCC3)cc21` [Example 1-621, (E)-3-[4-({1-[(13-cyclohexyl-3-ethoxy-5-methyl-6,7-dihydro-5H-benzo[5,6][1,4]diazepino[7,1-a]indole-10-carbonyl)amino]cyclobutanecarbonyl}amino)-2-methylphenyl]acrylic acid], the IC50 was < 100 nM.
To `Cn1c(C(C)(C)NC(=O)c2ccc3c(C4CCCCC4)c4n(c3c2)CCOc2ccccc2-4)nc2cc(C(=O)O)ccc21` [Example 2-330, 2-{1-[(12-cyclohexyl-6,7-dihydro-5-oxa-7a-azadibenzo[a,e]azulene-9-carbonyl)amino]-1-methylethyl}-1-methyl-1H-benzimidazole-5-carboxylic acid] belongs < 100 nM; to `CN(C)CC(=O)Nc1ccc(N2CCOCC2)c(COc2ccc3c(c2)OCCn2c-3c(C3CCCCC3)c3ccc(C(=O)O)cc32)c1` [Example 2-16, 12-cyclohexyl-3-[5-(2-dimethylaminoacetylamino)-2-(morpholin-4-yl)benzyloxy]-6,7-dihydro-5-oxa-7a-azadibenzo[a,e]azulene-9-carboxylic acid dihydrochloride], < 100 nM.
To `COc1ccc2c(c1)N(CC(=O)N(C)C)CCn1c-2c(C2CCCCC2)c2ccc(C(=O)O)cc21` [Example 1-28, 13-cyclohexyl-5-dimethylcarbamoylmethyl-3-methoxy-6,7-dihydro-5H-benzo[5,6][1,4]diazepino[7,1-a]indole-10-carboxylic acid] belongs < 100 nM; to `CCC1CCN(CCN2CCn3c(c(C4CCCCC4)c4ccc(C(=O)O)cc43)-c3ccc(C)cc32)C1` (stereo not shown) [Example 1-384, 13-cyclohexyl-5-[2-(3-ethylpyrrolidin-1-yl)ethyl]-3-methyl-6,7-dihydro-5H-benzo[5,6][1,4]diazepino[7,1-a]indole-10-carboxylic acid dihydrochloride], < 100 nM.
